# Measured values: patent US10023560B2, “Crystalline salt form of (S)-(2-(6 chloro-7-methyl-1H-benzo[d]imidazol-2-yl)-2-methylpyrrolidin-1-yl)(5-methoxy-2-(2H-1,2,3-triazol-2-yl)phenyl)methanone as orexin receptor antagonist” (priority 2013, dated 2018)
# Assays:
# mouse = mouse model of depression, administered chronically; cited from earlier work
# fasted hungry rats = fasted hungry rats exposed to food odors; cited from earlier work
# [1] = tested on: amyloid precursor protein transgenic mice; conditions: after acute sleep restriction; cited from earlier work
# rats [2] = conditions: rats treated with the compound; cited from earlier work
# rat [3] = conditions: rat model; cited from earlier work
# humans = conditions: indication primary insomnia; cited from earlier work
# rat [4] = conditions: cited from earlier work
# rat [5] = conditions: animal model of conditioned fear; cited from earlier work
# rats [6] = conditions: cited from earlier work
# [7] = Gravimetric vapour sorption (GVS) analysis; format: physicochemical
# Procedure: Gravimetric Vapour Sorption (GVS) Analysis
# The sample was allowed to equilibrate at 40% RH before starting a pre-defined humidity program (40-0-95-0-95-40% RH, steps of 5% ΔRH and with a maximal equilibration time of 24 hours per step were applied. About 20 to 30 mg of each sample was used. The hygroscopic classification is done according to the European Pharmacopeia Technical Guide (1999, page 86), e.g., slightly hygroscopic: increase in mass is less than 2% and equal to or greater than 0.2% mass/mass; hygroscopic: increase in mass is less than 15% and equal to or greater than 2% mass/mass. The mass change between 40% relative humidity and 80% relative humidity in the first adsorption scan is considered.
# Wistar rats = assay: Sedative effects: EEG, EMG and behavioural indices of alertness by radiotelemetry; format: in vivo; conditions: 30 mg/kg po, effects analyzed over 6 hours
# Procedure: Sedative Effects: EEG, EMG and Behavioural Indices of Alertness Recorded by Radiotelemetry In Vivo in Wistar Rats.
# Electroencephalography (EEG) and Electromyography (EMG) signals were measured by telemetry using TL11M2-F20-EET miniature radiotelemetric implants (Data Science Int.) with two pairs of differential leads.
# Surgical implantation was performed under general anesthesia with Ketamin/Xylazin, for cranial placement of one differential pair of EEG electrodes and one pair of EMG leads inserted in either side of the muscles of the neck. After surgery, rats recovered in a thermoregulated chamber and received analgesic treatment with subcutaneous buprenorphine twice a day for 2 d. They were then housed individually and allowed to recover for a minimum of 2 weeks. Thereafter, rats—in their home cage—were placed in a ventilated sound-attenuating box, on a 12-h light/12-h dark cycle, for acclimatization before continuous EEG/EMG recordings started. The telemetric technology that we used in this study allows accurate and stress-free acquisition of biosignals in rats placed in their familiar home cage environment, with no recording leads restricting their movements. Variables analyzed included four different stages of vigilance and sleep, spontaneous activity in the home cage and body temperature. Sleep and wake stages were evaluated using a rodent scoring software (Somnologica Science) directly processing electrical biosignals on 10 s contiguous epochs. The scoring is based on frequency estimation for EEG and amplitude discrimination for EMG and locomotor activity. Using these measurements, the software determines the probability that all components within each epoch best represent active waking (AW), quiet waking (QW), non-REM-sleep (NREM) or REM-sleep (REM). The percentage of total time spent in AW, QW, NREM- and REM-sleep was calculated per 12 h light or dark period. The latency to the onset of the first significant NREM- and REM-sleep episodes and the frequency and duration of those episodes were also calculated. […] All variables were subsequently recorded for 12 h following administration of the orexin receptor antagonist.
# rodents [8] = conditions: cited from earlier work
# rodents [9] = conditions: induced by repeated amphetamine administration in rodents; cited from earlier work
smiles,measurement,setting,value
"CNC(=O)[C@@H](c1ccccc1)N1CCc2cc(OC)c(OC)cc2[C@@H]1CCc1ccc(C(F)(F)F)cc1 [(2R)-2-{(1S)-6,7-dimethoxy-1-[2-(4-trifluoromethyl-phenyl)-ethyl]-3,4-dihydro-1H-isoquinolin-2-yl}-N-methyl-2-phenyl-acetamide]",antidepressant-like activity,mouse,induce antidepressant-like activity
same,natural activation induced by orexin A,fasted hungry rats,attenuate
same,brain levels of amyloid-beta (Aβ) and Aβ plaque deposition,[1],decreased
same,declarative and non-declarative learning and memory,rats [2],intact
same,activity in nicotine self-administration,rat [3],displayed pharmacological activity
same,clinical efficacy,humans,showed clinical efficacy
same,alertness (active wake and locomotion),rat [4],decrease alertness
same,time spent in REM and NREM sleep,rat [4],dose-dependently increase
same,activity in rat fear-potentiated startle paradigm,rat [5],active
same,cardiovascular responses to conditioned fear and novelty exposure,rats [6],attenuated
"COc1ccc(-n2nccn2)c(C(=O)N2CCC[C@@]2(C)c2nc3ccc(Cl)c(C)c3[nH]2)c1.Cl [COMPOUND hydrochloride, (S)-(2-(6-chloro-7-methyl-1H-benzo[d]imidazol-2-yl)-2-methylpyrrolidin-1-yl)(5-methoxy-2-(2H-1,2,3-triazol-2-yl)phenyl)methanone hydrochloride]",Hygroscopicity classification,"[7]; 25° C., European Pharmacopeia Technical Guide classification",Non hygroscopic (mass change smaller then
same,Hygroscopicity: mass change,"[7]; between 40% and 80% relative humidity, first adsorption scan, 25° C.",< 0.1%
same,Sorption behavior between cycles,[7]; first to second cycle,"Reproducible, cycle independent"
"COc1ccc(-n2nccn2)c(C(=O)N2CCC[C@@]2(C)c2nc3c(C)c(Cl)ccc3[nH]2)c1 [COMPOUND, (S)-(2-(6-chloro-7-methyl-1H-benzo[d]imidazol-2-yl)-2-methylpyrrolidin-1-yl)(5-methoxy-2-(2H-1,2,3-triazol-2-yl)phenyl)methanone]",effect on NREM sleep compared to vehicle controls,Wistar rats,+27%
same,effect on REM sleep compared to vehicle controls,Wistar rats,+53%
same,effect on active wake compared to vehicle controls,Wistar rats,−24%
same,effect on home cage activity compared to vehicle controls,Wistar rats,−31%
same,Hygroscopicity: sorption of moisture,"[7]; humidity program 40-0-95-0-95-40% RH, 25° C.",≤ 2.7 % moisture mass/mass
Cn1c(SCC(=O)N2CCC[C@H]2C(=O)Nc2ccccc2-c2ccccc2)nc2ccccc21 [N-biphenyl-2-yl-1-{[(1-methyl-1H-benzimidazol-2-yl)sulfanyl]acetyl}-L-prolinamide],nicotine-reinstatement for a conditioned reinforcer,rodents [8],inhibited
same,behavioral (locomotor sensitization) and molecular (transcriptional responses) changes,rodents [9],reduced
